# Measurements published in US20260165323A1, “USE OF STROBILURIN TYPE COMPOUNDS FOR COMBATING PHYTOPATHOGENIC FUNGI CONTAINING AN AMINO ACID SUBSTITUTION F129L IN THE MITOCHONDRIAL CYTOCHROME B PROTEIN CONFERRING RESISTANCE TO QO […]” (priority 2022, published 2026).
# Key:
# Type in all cases: in vivo
# [1] = system: Phakopsora pachyrhizi containing the amino acid substitution F129L in the mitochondrial cytochrome b protein; assay: Use Example 2: protective control of soybean rust on soybeans (PHAKPA P6); settings: inoculated six days after spraying, % diseased leaf area
# Procedure: (§1) The compound was dissolved in a mixture of acetone and/or dimethylsulfoxide and the wetting agent/emulsifier Wettol, which is based on ethoxylated alkylphenoles, in a ratio (volume) solvent-emulsifier of 99 to 1 to give a total volume of 5 ml. Subsequently, water was added to total volume of 100 ml. This stock solution was then diluted with the described solvent-emulsifier-water mixture to the final concentration given in the tables below.
# Use Example 2. Protective Control of Soybean Rust on Soybeans Caused by Phakopsora Pachyrhizi (PHAKPA P6)
# (§2) Leaves of potted soybean seedlings were sprayed to run-off with the previously described spray solution, containing the concentration of active ingredient as described below. The plants were allowed to air-dry. The trial plants were cultivated for six days in a greenhouse chamber at 23-27° C. and a relative humidity between 60 and 80%. Then the plants were inoculated with spores of Phakopsora pachyrhizi. The strain used contains the amino acid substitution F129L in the mitochondrial cytochrome b protein conferring resistance to Qo inhibitors. To ensure the success the artificial inoculation, the plants were transferred to a humid chamber with a relative humidity of about 95% and 23 to 27° C. for 24 hr. The trial plants were cultivated for up to 14 days in a greenhouse chamber at 23 to 27° C. and a relative humidity between 60 and 80%. The extent of fungal attack on the leaves was visually assessed as % diseased leaf area, the disease level of untreated controls was usually higher than 85%.
# Puccinia recondita [2] = assay: Use Example 3: curative control of brown rust on wheat (PUCCRT K4); settings: % diseased leaf area
# Procedure: as §1
# Use Example 3. Curative Control of Brown Rust on Wheat Caused by Puccinia recondita (PUCCRT K4)
# The first two developed leaves of potted wheat seedling were dusted with spores of Puccinia recondita. To ensure the success the artificial inoculation, the plants were transferred to a humid chamber without light and a relative humidity of 95 to 99% and 20 to 24° C. for 24 h. The next 3 days the plants were cultivated in a greenhouse chamber at 20 to 24° C. and a relative humidity between 65 and 70%. Then the plants were sprayed to run-off with previously described spray solution, containing the concentration of active ingredient or their mixture as described below. The plants were allowed to air-dry. Then the trial plants were cultivated for 5 to 7 days in a greenhouse chamber at 20 to 24° C. and a relative humidity between 65 and 70%. The extent of fungal attack on the leaves was visually assessed as % diseased leaf area, the disease level of untreated controls was usually between 80 and 100%.
# [3] = system: Phakopsora pachyrhizi containing the amino acid substitution F129L in the mitochondrial cytochrome b protein; assay: Use Example 1: protective control of soybean rust on soybeans (PHAKPA P2); settings: inoculated 2 days after spraying, % diseased leaf area
# Procedure: as §1
# Use Example 1. Protective Control of Soybean Rust on Soybeans Caused by Phakopsora pachyrhizi (PHAKPA P2)
# as §2, with “active ingredient or their mixture as described” for “active ingredient as described”, “cultivated for 2 days in” for “cultivated for six days in”, “95% and 20 to 24°” for “95% and 23 to 27°”, “20 to 24° C. for” for “23 to 27° C. for”
# Puccinia recondita [4] = assay: Use Example 4: preventative control of brown rust on wheat (PUCCRT P7); settings: inoculated seven days after spraying, % diseased leaf area
# Procedure: as §1
# Use Example 4. Preventative Control of Brown Rust on Wheat Caused by Puccinia recondita (PUCCRT P7)
# The first two developed leaves of potted wheat seedling were sprayed to run-off with previously described spray solution, containing the concentration of active ingredient or their mixture as described below. Seven days later the plants were dusted with spores of Puccinia recondita. To ensure the success of the artificial inoculation, the plants were transferred to a humid chamber without light and a relative humidity of 95 to 99% and 20 to 24° C. for 24 h. Then the trial plants were cultivated for 9 to 11 days in a greenhouse chamber at 20 to 24° C. and a relative humidity between 65 and 70%. The extent of fungal attack on the leaves was visually assessed as % diseased leaf area, the disease level of untreated controls was usually between 80 and 100%.
Compound,% PHAKPA (F129L) Disease level P6 at 4 ppm [1],% PHAKPA (F129L) Disease level P6 at 16 ppm [1],% PUCCRT Disease level K4 at 4 ppm (Puccinia recondita [2]),% PUCCRT Disease level K4 at 16 ppm (Puccinia recondita [2]),% PHAKPA (F129L) Disease level P2 at 4 ppm [3],% PHAKPA (F129L) Disease level P2 at 16 ppm [3],% PUCCRT Disease level P7 at 4 ppm (Puccinia recondita [4]),% PUCCRT Disease level P7 at 16 ppm (Puccinia recondita [4])
"CNC(=O)/C(=N/OC)c1cccc(Cl)c1CO/N=C(\COC)c1ccc(F)cc1 [compound 2, (2E)-2-[3-chloro-2-[[(Z)-[1-(4-fluorophenyl)-2-methoxyethylidene]amino]oxymethyl]phenyl]-2-methoxyimino-N-methyl-acetamide]",0%,1%,63%,4%,16%,0%,15%,5%
"CNC(=O)/C(=N/OC)c1cccc(Cl)c1CO/N=C(/C#Cc1ccc(F)cc1)COC [compound 6, (2E)-2-[3-chloro-2-[[(Z)-[3-(4-fluorophenyl)-1-(methoxymethyl)prop-2-ynylidene]amino]oxymethyl]phenyl]-2-methoxyimino-N-methyl-acetamide]",28%,5%,38%,2%,8%,0%,8%,0%
"CO/C=C(/C(=O)OC)c1cccc(Cl)c1CO/N=C(/C#Cc1ccc(F)cc1)COC [compound 7, Methyl (E)-2-[3-chloro-2-[[(Z)-[3-(4-fluorophenyl)-1-(methoxymethyl)prop-2-ynylidene]amino]oxymethyl]phenyl]-3-methoxy-prop-2-enoate]",11%,0%,70%,50%,2%,0%,35%,4%
"CO/C=C(/C(=O)OC)c1cccc(Br)c1CO/N=C(/C#Cc1ccc(F)cc1)COC [compound 8, Methyl-(E)-2-[3-bromo-2-[[(Z)-[3-(4-fluorophenyl)-1-(methoxymethyl)prop-2-ynylidene]amino]oxymethyl]phenyl]-3-methoxy-prop-2-enoate]",12%,0%,6%,0%,2%,0%,0%,0%
"CO/C=C(/C(=O)OC)c1cccc(Cl)c1CO/N=C(\COC)c1ccccc1 [compound 11, Methyl-(E)-2-[3-chloro-2-[[(Z)-(2-methoxy-1-phenyl-ethylidene)amino]oxymethyl]phenyl]-3-methoxy-prop-2-enoate]",11%,0%,7%,0%,2%,0%,25%,1%
CCOC/C(=N\OCc1c(Cl)cccc1/C(=N\OC)C(=O)OC)c1ccc(F)cc1 [compound 24],–,–,83%,82%,–,–,68%,48%
CCOC/C(=N\OCc1c(Cl)cccc1/C(=N\OC)C(=O)OC)c1cccc(F)c1 [compound 26],–,–,82%,82%,–,–,62%,21%
CCOC/C(=N\OCc1c(Cl)cccc1/C(=N\OC)C(=O)NC)c1ccccc1Cl [compound 51],–,–,72%,68%,–,–,75%,53%
COC/C(=N\OCc1c(Cl)cccc1/C(=N\OC)C(=O)OC)c1c(F)ccc(F)c1F [compound 111],42%,15%,–,–,39%,5%,30%,17%
CNC(=O)/C(=N/OC)c1cccc(Cl)c1CO/N=C(\COC)c1c(F)ccc(F)c1F [compound 112],21%,0%,–,–,8%,0%,43%,6%
CO/C=C(/C(=O)OC)c1cccc(Cl)c1CO/N=C(\COC)c1c(F)cc(Cl)cc1F [compound 115],9%,1%,–,–,8%,0%,57%,14%
COC/C(=N\OCc1c(Cl)cccc1/C(=N\OC)C(=O)OC)c1cccc(OC)c1 [compound 120],81%,45%,–,–,67%,11%,22%,2%
CNC(=O)/C(=N/OC)c1cccc(Cl)c1CO/N=C(\COC)c1ccccc1C [compound 122],76%,30%,–,–,82%,20%,45%,20%
CO/C=C(/C(=O)OC)c1cccc(F)c1CO/N=C(\COC)c1c(F)cc(F)cc1F [compound 125],–,–,68%,7%,–,–,–,–
CNC(=O)/C(=N/OC)c1cccc(Cl)c1CO/N=C(\COC)c1cccc(C)c1 [compound 127],18%,4%,58%,1%,21%,0%,–,–
CO/C=C(/C(=O)OC)c1cccc(Cl)c1CO/N=C(\COC)c1cccc(C)c1 [compound 128],4%,1%,20%,1%,4%,0%,–,–
